Laboratory results from patent publication US20090298752A1, “APLIDINE TREATMENT OF CANCERS” (PHARMA MAR, S.A., priority 1999, published 2009).
Several values for one entry are separate records, joined by “and”; a condition that tells them apart may be missing. Equal values may be shown once.

Experiments:
[1] = Clinical pharmacokinetics across phase I schedules; type: in vivo, human; conditions: plasma PK, initial results
Experimental: […] intravenous schedules are under phase I evaluation: weekly 24 h infusion, biweekly 24 h infusion and 5 consecutive days 1 h infusion every 3 weeks. APL blood concentrations are analysed by liquid chromatography-tandem mass spectrometry. […] An open 2-compartment model fits appropriately most profiles after 24 h infusion. For 1 h infusions a 3-compartment model provides a better fit in most cases. Obtained plasma levels are known to be active in vitro. Evaluation of additional patients, and a comparison of blood cells and plasma PK is ongoing.

Prostate PC-3 = experiment: sc xenograft, prostate tumour, mouse; type: in vivo; conditions: for Activity (% T/C.): xenograft, mouse
Experimental: Different model systems were evaluated to provide the basis for further clinical work. Selective antitumour activities were seen against two histologically different solid tumours: human gastric and prostate carcinomas. Potent in vitro activity to primary gastric tumour specimens or Hs746T gastric tumour cells is evident with IC30 values of 146 and 450 pM, respectively. […] activities were evaluated in nude rodents using sc implanted tumour fragments or hollow fibres (HF) containing tumour cells.
Follow-up studies necessitated using rats for iv infusions. With this variation, a 24 hr iv infusion schedule produced similar activities against HF gastric (20%) and HF prostate (31%) tumour cells. Cytotoxicity was also found using a 5 day iv infusion schedule against HF prostate tumour cells (33%).

[2] = system: advanced solid tumours and lymphoma; experiment: Phase I, 1 h weekly infusion x3 q4wk: antitumour activity; type: in vivo, human
Source text: Adult patients with advanced disease, PS<3, and appropriate organ function are considered eligible; patients receive aplidine wk×3/q^4 wks. 24 solid tumour patients have been entered: median (m) age 55 y, m ECOG=1, 15/24 patients treated with =>2 treatment cycles. Seven dose levels (DL) from 133 mcg/m^2/wk to 2700 mcg/m^2/wk have been assessed: 102 infusions are evaluable for toxicity (tox). […] At 2700 mcg/m^2/wk (4 pts), 1 had G3 hiperbilirrubinemia that has been considered to be dose limiting and therefore 2700 mcg/m^2/wk DL is being expanded. […] Plasma levels >1 ng/ml 24 hours after infusion are reachable form 1800 mcg/m^2/wk. […] Aplidine appears to be clinically feasible at pharmacologically appropriate dose levels.
Aplidine was administered as a 1 hour weekly×3 every four weeks

[3] = system: CT-1, CT-2 and HT-29 cell lines; conditions: cited from earlier work
[4] = Phase I, 24 h infusion weekly x3 q4wk: toxicity and pharmacokinetics; type: in vivo, human
Experimental: A phase I trial was performed using 24 hour infusion weekly×3 followed by 1 wk rest. 32 patients (median age 58 yrs, median ECOG 1) with advanced, previously treated solid tumours have been treated. They have received 64 courses (median/pt: 2 (1-6)) across 8 dose levels: 133 (3 pts), 266 (3 pts), 532 (3 pts), 1000 (3 pts), 2000 (3 pts), 3000 (3 pts), 4500 (4 pts) and 3750 mcg/m^2/wk (10 pts). 2 out of 3 evaluable patients had DLT at 4500 mcg/m^2/wk: grade (G) 4 reversible neuromuscular toxicity (biopsy prevent type II muscular atrophy) and G4 CK increase (1 pt), and transient G3 transaminitis (1 pt). Other toxicities included G 1-2 malaise (most patients treated at ≧3000 mcg/m^2/wk), muscle cramps, G 1-2 emesis (responsive to antiemetics) and injection site reaction (very common and concentration-dependent). All patients have been sampled for PK analysis by a LC/MS/MS method. Pharmacokinetics are linear and the profiles fit a 2 compartment open model. […] Maintained plasma levels >1 ng/ml (active in vitro) were obtained at doses ≧3000 mcg/m^2. […] Four additional patients had minor responses or stable disease for >4 months. […] The recommended dose for future trials, 3750 mcg/m^2/wk×3, administered through a central vein catheter, is feasible and associated with mild toxicity.
Plasma aplidine concentrations were determined by liquid chromatography/tandem mass spectography with a limit of quantitation of 0.25 ng/mL and a broad linear range up to 16.00 ng/mL
A total of 15 samples were drawn up to 24 hours after the end of infusion

[5] = DL V, 2000 mcg/m^2/wk, 3 patients
[6] = DL VI, 3000 mcg/m^2/wk, 3 patients
[7] = DL VII (MTD), 4500 mcg/m^2/wk, 4 patients
[8] = DL VIII (RD), 3750 mcg/m^2/wk, 13 patients

In the case of aplidine, the elimination half lives [1] was 10 to 24 h, the volume of distribution [1] was > 200 L/m^2 and the “Optimal activities, xenografted prostate tumours” value (Prostate PC-3; ip administration, range over regimens) was 25-38%. The “Activity (% T/C.)” value (Prostate PC-3; q4dx3.ip, 1.05 mg/kg) was 38% T/C, the “Activity (% T/C.)” value (Prostate PC-3; q4dx3.ip, 2.10 mg/kg) was 34% T/C and the “Activity (% T/C.)” value (Prostate PC-3; qd9.ip, 0.62 mg/kg) was 30% T/C. For the same substance, the “Activity (% T/C.)” value (Prostate PC-3; qd9.ip, 1.25 mg/kg) was 25% T/C, the “response, Pat #16, gastric adenocarcinoma resistant to FAM” value ([2]; 1200 μg/m^2 weekly) was “Slight improvement in the lymph node masses” and the “activity in gastric cancer” value ([2]; 1 patient at 1200 mcg/m^2) was “Early hints of activity”. The “response, advanced renal cancer resistant to VBL-IFN” value ([2]; 2700 mcg/m^2/wk DL) was “ongoing objective response”, the “response, Pat #23, kidney carcinoma with pulmonary nodules” value ([2]; after 2 infusions at 2700 μg/m^2 weekly) was “Partial remission in lung nodules” and the “response, Pat #29, kidney carcinoma” value ([2]; after 3 infusion) was “Clinical improvement”. The cytotoxic activity [3] was “dose-dependent cytotoxic activity”, the “evaluable patients with DLT” value ([4]; 4500 mcg/m^2/wk) was 2 out of 3 and the “Recommended Dose” value ([4]; 24 h infusion weekly x3 q4wk) was 3750 μg/m^2/wk×3. The “Inj. Site reaction G2 (worst toxicity per patient)” value ([4]; DL II, 266 mcg/m^2/wk, 3 patients) was 1, the “Asthenia G2 (worst toxicity per patient)” value ([4]; DL III, 532 mcg/m^2/wk, 3 patients) was 1 and the “Inj. Site reaction G2 (worst toxicity per patient)” value ([4]; DL IV, 1000 mcg/m^2/wk, 3 patients) was 1. The “Inj. Site reaction G2 (worst toxicity per patient)” value [4, 5] was 1, the “Nausea G2 (worst toxicity per patient)” value [4, 5] was 1 and the “Asthenia G2 (worst toxicity per patient)” value [4, 6] was 1. The “Asthenia G3 (worst toxicity per patient)” value [4, 6] was 1, the “Inj. Site reaction G2 (worst toxicity per patient)” value [4, 6] was 1 and the “Nausea G3 (worst toxicity per patient)” value [4, 6] was 1. The “Asthenia G2 (worst toxicity per patient)” value [4, 7] was 1, the “CPK elevation G4 (worst toxicity per patient)” value [4, 7] was 1 and the “Inj. Site reaction G2 (worst toxicity per patient)” value [4, 7] was 1. For the same substance, the “Myositis G3 (worst toxicity per patient)” value [4, 7] was 1, the “Transaminitis G3 (worst toxicity per patient)” value [4, 7] was 1 and the “Asthenia G2 (worst toxicity per patient)” value [4, 8] was 3. The “Hypersensitivity G3 (worst toxicity per patient)” value [4, 8] was 1, the “Inj. Site reaction G2 (worst toxicity per patient)” value [4, 8] was 3 and the “Nausea G2 (worst toxicity per patient)” value [4, 8] was 2. For the same substance, the “Transaminitis G3 (worst toxicity per patient)” value [4, 8] was 2, the “Transaminitis G4 (worst toxicity per patient)” value [4, 8] was 1 and the plasma levels ([4]; DLs 1000 and 2000 mcg/m^2/w) was ~1 ng/mL. For the same substance, the “dose limiting toxicities (DLTs)” value ([4]; Example 3: 16 patients, 133-3000 mcg/m^2/wk x3) was “No dose limiting toxicities”, the “Maximum Tolerated Dose” value ([4]; Example 4) was 4500 μg/m^2/wk×3 and the “elimination t ½” value ([4]; Example 4, preliminary data) was 10 to 24 h. The plasma levels ([4]; Example 4, preliminary data) was > 1 ng/mL, the MTD ([4]; Example 11) was 4500 mcg/m^2/wk and the “recommended dose for future trials” value ([4]; Example 11, central vein catheter) was 3750 mcg/m^2/wk×3. The MTD ([4]; Example 12) was 4500 mcg/m^2/week×3, the haematological toxicity ([4]; Example 12) was “No haematological toxicity” and the “recommended dose for future trials” value ([4]; Example 12) was 3750 mcg/m^2/week×3. The maintained plasma levels ([4]; doses ≧3000 mcg/m^2) was > 1 ng/mL, the “Blood cell accumulation as compared to plasma” value ([4]; in vivo) was 2-8 fold and the “dose from which potentially active plasma levels are reached” value ([4]; in vivo) was ≥ 2000 mcg/m^2. The “coefficient of variation of clearance (Cl)” value ([4]; interpatient variability) was 45%, the Vss ([4]; median (quartiles)) was 611 L and 611 (434-733) L and the “clearance (Cl)” value ([4]; median (quartiles)) was 0.47 L/min and 0.47 (0.40-0.56) L/min. For the same substance, the “elimination t ½” value ([4]; median (quartiles)) was 18.8 h and 18.8 (15.3-25.4) h.
